Measurements reported in ChEMBL document CHEMBL6078645, “Expanding the Solvent/Protein Region Occupation of the Non-Nucleoside Reverse Transcriptase Inhibitor Binding Pocket for Improved Broad-Spectrum Anti-HIV-1 Efficacy: from Rigid Phenyl-Diarylpyrimidines to Flexible Hydrophilic Piperidine-Diarylpyrimidines” (J Med Chem, 2024).
Values after ≈ are worked out from the molar mass of the structure shown. Values joined by “and” are separate entries in the source; they are usually repeats but may differ in a detail not shown here. Identical values can stand only once.

What was measured:
[1] = (§1) Cytotoxicity against human MT4 cells assessed as reduction in cell viability incubated for 5 days by MTT assay; assay type: toxicity, cell-based; settings: MT4 cells, time 5 day
[2] = system: Human immunodeficiency virus 1; experiment: Antiviral activity against HIV-1 harboring E138K mutant infected in human MT4 cells assessed as protection against virus-induced cytopathic effect incubated for 5 days by MTT assay; assay type: functional, organism-based; settings: Human immunodeficiency virus 1, MT4, 120 h
[3] = Selectivity index, ratio of CC50 for cytotoxicity against human MT4 cells assessed as reduction in cell viability to EC50 for antiviral activity against wild type HIV-1 IIIB infected in human MT4 cells assessed as protection against virus-induced cytopathic effect; assay type: toxicity, cell-based; settings: for selectivity ratio: MT4 cells, read-out: Ratio CC50/EC50
[4] = system: Human immunodeficiency virus 1; experiment: Antiviral activity against HIV-1 harboring K103N mutant infected in human MT4 cells assessed as protection against virus-induced cytopathic effect incubated for 5 days by MTT assay; assay type: functional, organism-based; settings: Human immunodeficiency virus 1, MT4, 120 h
[5] = system: Human immunodeficiency virus 1; experiment: Antiviral activity against HIV-1 harboring F227L/V106A double mutant infected in human MT4 cells assessed as protection against virus-induced cytopathic effect incubated for 5 days by MTT assay; assay type: functional, organism-based
[6] = system: Human immunodeficiency virus 1; experiment: Antiviral activity against HIV-1 harboring RES056 mutant infected in human MT4 cells assessed as protection against virus-induced cytopathic effect incubated for 5 days by MTT assay; assay type: functional, organism-based
[7] = system: Human immunodeficiency virus 1; experiment: Antiviral activity against HIV-1 harboring Y181C mutant infected in human MT4 cells assessed as protection against virus-induced cytopathic effect incubated for 5 days by MTT assay; assay type: functional, organism-based; settings: Human immunodeficiency virus 1, MT4, 120 h
[8] = system: Human immunodeficiency virus 1; experiment: Antiviral activity against HIV-1 harboring Y188L mutant infected in human MT4 cells assessed as protection against virus-induced cytopathic effect incubated for 5 days by MTT assay; assay type: functional, organism-based
[9] = system: Human immunodeficiency virus 1; experiment: Antiviral activity against wild type HIV-1 IIIB infected in human MT4 cells assessed as protection against virus-induced cytopathic effect incubated for 5 days by MTT assay; assay type: functional, organism-based
[10] = system: Human immunodeficiency virus 1; experiment: Antiviral activity against HIV-1 harboring L100I mutant infected in human MT4 cells assessed as protection against virus-induced cytopathic effect incubated for 5 days by MTT assay; assay type: functional, organism-based; settings: Human immunodeficiency virus 1, MT4, 120 h
MT4 = experiment: as §1; assay type: toxicity, cell-based; settings: mt4, 120 h, 120 h, time 5 day
[11] = target: T1, Human immunodeficiency virus type 1 reverse transcriptase (Human immunodeficiency virus 1, UniProt Q72547); experiment: Inhibition of wildtype recombinant HIV-1 Reverse transcriptase incubated for 40 mins by spectrofluorometric analysis
[12] = target: T1, Human immunodeficiency virus type 1 reverse transcriptase; experiment: Inhibition of HIV-1 reverse transcriptase
[13] = Solubility of compound in phosphate buffer at pH 7 incubated for 24 hrs by HPLC analysis; assay type: physicochemical
[14] = Solubility of compound in phosphate buffer at pH 7.4 incubated for 24 hrs by HPLC analysis; assay type: physicochemical
[15] = Solubility of compound incubated for 24 hrs by HPLC analysis; assay type: physicochemical
[16] = Solubility of compound in phosphate buffer at pH 2 incubated for 24 hrs by HPLC analysis; assay type: physicochemical
[17] = Human immunodeficiency virus 1, MT4, 120 h
[18] = Human immunodeficiency virus 1, IIIB, MT4, 120 h

| Structure (SMILES) | CC50 at 120 h [1] [µM] | EC50 [2] [nM] | selectivity ratio [3] | EC50 [4] [nM] | EC50 [5, 17] [nM] | EC50 [6, 17] [nM] | EC50 [7] [nM] | EC50 [8, 17] [nM] | EC50 [9, 18] [nM] | EC50 [10] [nM] | IC50 [11] [nM] | further results |
| --- | --- | --- | --- | --- | --- | --- | --- | --- | --- | --- | --- | --- |
| COCCNC(=O)c1ccc(CN2CCC(Nc3ncc(CO)c(Oc4c(C)cc(-c5ccncc5)cc4C)n3)CC2)cc1 | 110 | 50 | 11200 | 5 | 64 | 58 | 34 | 46 | 10 | 11 |  |  |
| Cc1cc(-c2ccc(C#N)cc2)cc(C)c1Oc1nc(NC2CCN(Cc3ccc(S(=O)(=O)N4CCC(O)CC4)cc3)CC2)ncc1CO |  | 38 |  | 9 | 54 | 169 | 39 |  |  | 22 | 595 | CC50 (MT4): 3.25 µM and 18.4 µM; EC50 ([5]; mt4): 51 nM; EC50 ([6]; mt4): 307 nM; EC50 ([8]; mt4): 125 nM and 56 nM; EC50 [12]: 8 nM and 9 nM |
| Cc1cc(-c2ccncc2)cc(C)c1Oc1nc(NC2CCN(Cc3ccc(S(N)(=O)=O)cc3)CC2)ncc1CO | > 218 |  | > 7620 |  | 65 | 329 |  | 177 | 29 |  | 192000 |  |
| Cc1cc(-c2ccc(C#N)cc2)cc(C)c1Oc1nc(NC2CCN(Cc3ccc(CO)cc3)CC2)ncc1CO | 18.4 |  | 1980 |  | 51 | 307 |  | 56 | 9 |  |  |  |
| CNC(=O)c1ccc(CN2CCC(Nc3ncc(CO)c(Oc4c(C)cc(-c5ccncc5)cc4C)n3)CC2)cc1 | > 226 |  | > 20200 |  | 133 | 925 |  | 122 | 11 |  | 253 |  |
| Cc1cc(-c2ccc(C#N)cc2)cc(C)c1Oc1nc(NC2CCN(Cc3ccc(S(N)(=O)=O)cc3)CC2)ncc1CO.Cl |  |  |  |  |  |  |  |  |  |  |  | solubility at 24 h [13]: < 1 µg/mL; solubility at 24 h [14]: < 1 µg/mL; solubility at 24 h [15]: 5270 µg/mL; solubility at 24 h [16]: > 56400 µg/mL |
| Cc1cc(C#N)cc(C)c1Oc1nc(Nc2ccc(C#N)cc2)nc(N)c1Br [ETRAVIRINE] | > 4.61 |  |  |  |  | 37 |  |  |  | 6 |  | solubility at 24 h [13]: < 1 µg/mL; solubility at 24 h [14]: < 1 µg/mL; solubility at 24 h [15]: < 1 µg/mL; solubility at 24 h [16]: 127 µg/mL (≈ 292 µM) |
| Cc1cc(-c2ccncc2)cc(C)c1Oc1nc(NC2CCN(Cc3ccc(S(=O)(=O)N4CCC(O)CC4)cc3)CC2)ncc1CO | 17.7 |  | 750 |  | 43 | 446 |  | 226 | 24 |  |  |  |
| Cc1cc(-c2ccncc2)cc(C)c1Oc1nc(NC2CCN(Cc3ccc(C(=O)NCCO)cc3)CC2)ncc1CO | > 215 |  | > 5500 |  | 2830 | 5680 |  | 2010 | 39 |  | 222 |  |
| Cc1cc(-c2ccncc2)cc(C)c1Oc1nc(NC2CCN(Cc3cccc(C(N)=O)c3)CC2)ncc1CO | > 232 |  | > 23800 |  | 98 | 883 |  | 101 | 10 |  | 188 |  |
| CNS(=O)(=O)c1ccc(CN2CCC(Nc3ncc(CO)c(Oc4c(C)cc(-c5ccncc5)cc4C)n3)CC2)cc1 | > 212 |  | > 14800 |  | 234 | 405 |  | 100 | 14 |  | 198 |  |
| COCCNS(=O)(=O)c1ccc(CN2CCC(Nc3ncc(CO)c(Oc4c(C)cc(-c5ccncc5)cc4C)n3)CC2)cc1 | 45.9 | 48 | 5130 | 7 | 122 | 157 | 39 | 48 | 9 | 9 |  |  |
| COCCNC(=O)c1ccc(CN2CCC(Nc3ncc(CO)c(Oc4c(C)cc(-c5ccc(C#N)cc5)cc4C)n3)CC2)cc1 | 17.6 | 19 | 1860 | 7 | 42 | 44 | 23 | 49 |  | 6 | 509 | EC50 [12]: 9 nM |
| Cc1cc(-c2ccncc2)cc(C)c1Oc1nc(NC2CCN(Cc3ccc(S(=O)(=O)NCCO)cc3)CC2)ncc1CO |  |  | 5080 |  | 285 |  |  | 466 | 28 |  | 186 | CC50 (MT4): > 210 µM; Ratio CC50/EC50 ([3]; mt4): > 5837; EC50 ([5]; mt4): 403 nM; EC50 ([6]; mt4): 1230 nM and 2660 nM; EC50 ([8]; mt4): 919 nM; EC50 ([9]; mt4): 36 nM |
| Cc1cc(-c2ccc(C#N)cc2)cc(C)c1Oc1nc(NC2CCN(Cc3cccc(C#N)c3)CC2)ncc1CO | 5.81 | 55 | 711 | 16 | 122 | 990 | 18 | 51 |  | 12 | 261 | EC50 [12]: 8 nM |
| CNS(=O)(=O)c1ccc(CN2CCC(Nc3ncc(CO)c(Oc4c(C)cc(-c5ccc(C#N)cc5)cc4C)n3)CC2)cc1 | 6.68 | 30 | 1190 | 10 | 52 | 66 | 19 | 31 |  | 8 | 497 | EC50 [12]: 6 nM |
| Cc1cc(-c2ccncc2)cc(C)c1Oc1nc(NC2CCN(Cc3ccc(C(N)=O)cc3)CC2)ncc1CO | > 232 |  | > 24800 |  | 229 | 1470 |  | 210 | 9 |  | 183 |  |
| Cc1cc(-c2ccc(C#N)cc2)cc(C)c1Oc1nc(NC2CCN(Cc3ccc(C(=O)NCCCO)cc3)CC2)ncc1CO | 17.3 | 26 | 2630 | 7 | 55 | 272 | 29 | 114 |  | 10 | 463 | EC50 [12]: 7 nM |
